Assay results published in patent US9320810B2, “HMGN2 peptides and related molecules that selectively home to tumor blood vessels and tumor cells” (Sanford-Burnham Medical Research Institute, priority 2002, dated 2016).
Where no end group is shown, it is not given here.

Tests used:
HL-60 cells = test: Phage binding to cultured HL-60 cells in vitro; assay type: cell-based, human; conditions: phage-displayed HMGN1 exon 3 sequence
Procedure: (§1) In particular, about 1000 times more SEQ ID NO:5-displaying phage than non-recombinant T7 phage bound to cultured HL-60 or MDA-MB-435 cells in vitro. Similarly, SEQ ID NO:5-displaying also bound cell suspensions prepared from HL-60 tumors with a 1000-fold specificity relative to control T7 phage.
The phage binding assay was performed essentially as follows. Attachment of phage to cells was quantified by incubating 1×10^8 pfu of phage displaying SEQ ID NO: 9 for 60 minutes with 1×10^6 HL-60 cells at 4° C. in Tris-buffered saline with 1 mM Ca^+2 and 1 mM MgCl2. Bound phage were rescued after four washes with phosphate-buffered saline by adding 1 ml of bacteria for 7 minutes at room temperature. Bound phage were quantified by plating and counting pfu.
Binding of SEQ ID NO: 9-displaying phage to tumor cells was inhibited by free SEQ ID NO: 9 peptide in a dose dependent fashion. […] In contrast, background binding of non-recombinant phage was unaffected by free peptide. Specificity of cell binding by peptide SEQ ID NO: 9 was further confirmed by comparing HL-60 cell binding of phage expressing the HMGN2 exon 3 sequence PQRRSARLSA (SEQ ID NO: 11) to binding with phage expressing the homologous HMGN1 exon 3 sequence PKRRSARLSA (SEQ ID NO: 12).

HL-60 xenograft tumors = test: Tissue localization of intravenously injected fluorescein-conjugated peptide, HL-60 xenograft mice; assay type: in vivo, mouse; conditions: tail vein
Procedure: To study peptide localization, fluorescein-conjugated SEQ ID NO: 9 or ARALPSQRSR (SEQ ID NO: 13) was injected into the tail vein of mice bearing HL-60 or MDA-MB-435 xenografts. Peptide injection was followed 10 minutes later by injection of biotinylated tomato lectin, a marker of the vasculature. After another five minutes, mice were perfused through the heart with fixative solution, and the organs dissected, sectioned and stained with streptavidin-AlexaFluor 594. Slides were counter-stained with DAPI and examined under an inverted fluorescent microscope.
As shown in FIGS. 3A and G-J, fluorescence predominantly localized to nuclei, with most of the tumor cells containing fluorescence positioned close to blood vessels. […] In some microscopic fields, SEQ ID NO: 9 fluorescence essentially was limited to the endothelial cells, clearly illustrating the expression of peptide SEQ ID NO: 9 within endothelial cells and their nuclei (see FIG. 3F).
Histological analyses were performed as follows. […] Biotin-conjugated lectin was detected with streptavidin-Alexa 594 (Molecular Probes; Eugene, Oreg.); the slides were mounted with Vectashield-DAPI (Vector Laboratories; Burlingame, Calif.), and examined under an inverted fluorescent microscope.

[1] = tested on: human bone marrow mononuclear cells; test: Flow cytometry of fluorescein-labeled peptide binding to human bone marrow mononuclear cells; assay type: cell-based; conditions: FIG. 4, fluorescent peptide
Procedure: Fluorescein-labeled SEQ ID NO: 9 or control peptide SEQ ID NO: 13 (2 μM) were incubated with gradient-depleted bone marrow cells for one hour at 4° C. and analyzed in a flow cytometer. […] The SEQ ID NO: 9-positive cells were the size of lymphocytes, agranular, CD45-positive and mostly CD34-negative, a marker profile similar to that of the lineage-depleted murine bone marrow cells used in the in vitro phage selection.
Flow cytometry was performed as follows. Human bone marrow specimens represented excess material from samples collected for diagnostic purposes from adults with hematological malignancies following informed consent. A total of 2 ml of bone marrow was aspirated from the posterior iliac crest and stored in a citrate anticoagulant. Mononuclear cells were isolated by gradient centrifugation (Ficoll-Paque PLUS; Amersham Pharmacia Biotech; Uppsala, Sweden) and incubated in RPMI-1640 media supplemented with 10% FBS for two hours at 37° C. Cells subsequently were transferred to 4° C. and incubated with 1-2 μM fluorescein-conjugated peptide for 45 minutes before staining with PerCP- or PE-conjugated CD34 and CD45 antibodies (Beckton Dickinson Biosciences; San Jose, Calif.) for 30 minutes. Samples were analyzed with either a FACSCalibur or LSR flow cytometer (Beckton Dickinson Biosciences); 100,000 events were collected.

[2] = tested on: primary cells obtained from HL-60 xenograft tumors; test: Phage binding to primary cells obtained from HL-60 xenograft tumors; assay type: cell-based, human; conditions: phage-displayed
Source text: as §1
Phage displaying a set of sequences corresponding to fragments of the amino-terminal portion of HMGN2 (SEQ ID NO: 5) were constructed to localize the region responsible for cell binding and in vivo homing. Fragments were designed to follow the exon/intron boundaries of the HMGN2 gene. Inserts encoding the indicated fragments were amplified from the full length HMGN2 phage clone by PCR, purified, digested and directionally cloned into the T7 415-1 and 10-3 vectors. Phage were packaged, amplified and sequenced according to the manufacturer's instructions. Phage preparations were then tested for binding to primary cells obtained from HL-60 xenograft tumors. After a 1 hour incubation at 4° C., cells were washed, and bound phage quantified. […] Furthermore, phage displaying the N-terminal portion of the active fragment SEQ ID NO: 9, which corresponds to exon 3 of the HMGN2 gene, were prepared. These phage expressing the sequence PQRRSARLSA (SEQ ID NO: 11) bound to tumor cells 90-fold more than non-recombinant phage.

mitochondrial membranes = conditions: cited from earlier work

With PKRRSARLSA [SEQ ID NO: 12] the “reduction of HL-60 cell binding relative to HMGN2 phage expressing SEQ ID NO: 11” value (HL-60 cells) was 90%.

With “ARALPSQRSR (not fully specified (N-terminus); also: fluorescein label) [SEQ ID NO: 13, fluorescein-labeled scrambled exon 3 control peptide]” the “fluorescence in tumor tissue” value (HL-60 xenograft tumors; fluorescein-conjugated peptide, about 15 minutes circulation) was “essentially undetectable in other tissues, including the HL-60 tumors”, the fluorescence in kidneys (HL-60 xenograft tumors; fluorescein-labeled peptide, non-specific uptake) was “diffuse fluorescence accumulated in proximal tubules of kidneys” and the “number of cells in lower right quadrant (FACS)” value [1] was 1. The “percentage of cells in lower right quadrant (FACS)” value [1] was 0.0.

For PQRRSARLSA [SEQ ID NO: 11], the “binding to tumor cells relative to non-recombinant phage” value [2] was 90 fold.

In the case of “D(KLAKLAK)2: antimicrobial, pro-apoptotic peptide”, the “concentration inducing marked mitochondrial swelling” value (mitochondrial membranes) is given as 10 µM.
